Measurements taken from patent EP4582413A1, “ARYLTETRAHYDROPYRIDINE COMPOUND AND PEST CONTROL AGENT” (priority 2022, dated 2024).

Columns and labels:
Format in all cases: in vivo
[1] = test system: cat fleas (Ctenocephalides felis); experiment: whole plant or invertebrate; conditions: 72 h, read-out: death rate
Procedure: In 1 ml of acetone, 1 mg of the presently invented compound was dissolved to prepare a chemical solution having a concentration of 1000 ppm. The bottom surface and side surface of each glass container having an inner wall surface area of 25 cm^2 were coated with 250 µl of the chemical solution, and acetone was then volatilized to form a thin film of the compound on the inner wall of the glass container.
Into each of the treated glass containers, five cat fleas (Ctenocephalides felis) imagoes (mixed-sex) were released, and the glass containers were capped and accommodated in a thermostatic room at 25°C. Three days after the release, the number of dead flea individuals were examined, and the death rate was calculated from the same calculation formula as in Test Example 1.

[2] = test system: diamondback moths (Plutella xylostella); experiment: Insecticidal test for diamondback moths; conditions: Plutella xylostella, 144 h; 500 ppm chemical solution, leaves soaked, third-instar larvae, six days, 25°C; read-out: death rate
Procedure: A 10% by mass emulsion of the presently invented compound prepared according to the above formulation example for an emulsion was diluted with water containing a spreader to prepare a chemical solution having a concentration of 500 ppm. Chinese olive leaves were soaked in the chemical solution for approximately 10 seconds. After the completion of the soaking operation, the Chinese olive leaves treated with the chemical solution were air-dried, and then put in dishes. Into each dish, five third-instar diamondback moths (Plutella xylostella) larvae were released, and the dishes were capped and accommodated in a thermostatic room at 25°C. […] The test was carried out in duplicate.

[3] = test system: brown rice planthoppers (Nilaparvata lugens); experiment: Insecticidal test for brown rice planthoppers; conditions: Nilaparvata lugens, 144 h; 500 ppm chemical solution, rice leaf sheaths soaked, third-instar larvae, six days, 25°C; read-out: death rate
Procedure: A 10% by mass emulsion of the presently invented compound prepared according to the above formulation example for an emulsion was diluted with water containing a spreader to prepare a chemical solution having a concentration of 500 ppm. Rice leaf sheaths were soaked in the chemical solution for approximately 10 seconds. After the completion of the soaking operation, the rice leaf sheaths treated with the chemical solution were air-dried, and then put in test tubes. Into each test tube, five third-instar brown rice planthoppers (Nilaparvata lugens) larvae were released, and the test tubes were capped with sponge and accommodated in a thermostatic room at 25°C. Six days after the accommodation, the number of dead brown rice planthoppers individuals in the test tubes were examined, and the death rate was calculated from a calculation formula shown below. The test was carried out in duplicate. [formula]

[4] = test system: western flower thrips (Frankliniella occidentalis); experiment: Insecticidal activity against western flower thrips; conditions: Frankliniella occidentalis, 48 h; 500 ppm chemical solution sprinkled (2.5 mg/cm^2), larvae on common bean leaf, after 2 days; read-out: death rate
Procedure: Wet filter paper was laid on each styrol cup having an inner diameter of 7 cm, and a common bean leaf cut into a 3 cm square was placed thereon, and inoculated with 20 western flower thrips (Frankliniella occidentalis) larvae. A 10% by mass emulsion of the presently invented compound prepared according to the above formulation example for an emulsion was diluted with water containing a spreader to prepare a chemical solution having a concentration of 500 ppm. For each styrol cup, 2.5 ml of the chemical solution prepared was sprinkled (2.5 mg/cm^2) with a rotary tower sprinkler. […] The test was carried out in duplicate.

| Compound | mortality at 10 µg/cm2 [1] | mortality at 500 µg/mL [2] | mortality at 500 µg/mL [3] | mortality at 500 µg/mL [4] |
| --- | --- | --- | --- | --- |
| O=C(Nc1ccc(Cl)nc1)C1=C(O)CC(c2cnc(Cl)c(-c3ccccc3)c2)NC1=O (centres unmarked) [2-092] | ≥ 50% | ≥ 90% | ≥ 90% | ≥ 90% |
| N#Cc1ccc(NC(=O)C2=C(O)CC(c3cnc(Cl)c(-c4ccccc4)c3)NC2=O)cn1 (centres unmarked) [2-093] | ≥ 50% | ≥ 90% | ≥ 90% | ≥ 90% |
| N#Cc1ccc(NC(=O)C2=C(O)CC(c3cnc(Cl)c(-c4ccccc4)c3)NC2=O)nc1 (centres unmarked) [2-094] | ≥ 50% | ≥ 90% | ≥ 90% | ≥ 90% |
| O=C(Nc1cnc(Cl)cn1)C1=C(O)CC(c2cnc(Cl)c(-c3ccccc3)c2)NC1=O (centres unmarked) [2-095] | ≥ 50% | ≥ 90% | ≥ 90% | ≥ 90% |
| O=C(Nc1ccccn1)C1=C(O)CC(c2cnc(Cl)c(-c3ccc(F)nc3)c2)NC1=O (centres unmarked) [2-096] | ≥ 50% | ≥ 90% | ≥ 90% | ≥ 90% |
| O=C(Nc1ccncn1)C1=C(O)CC(c2cnc(Cl)c(-c3ccc(F)nc3)c2)NC1=O (centres unmarked) [2-101] | ≥ 50% | ≥ 90% | ≥ 90% | ≥ 90% |
| O=C(Nc1ncccn1)C1=C(O)CC(c2cnc(Cl)c(-c3cnccc3F)c2)NC1=O (centres unmarked) [2-134] | ≥ 50% | ≥ 90% | ≥ 90% | ≥ 90% |
| O=C(Nc1nccs1)C1=C(O)CC(c2cnc(Cl)c(-c3cnccc3F)c2)NC1=O (centres unmarked) [2-135] | ≥ 50% | ≥ 90% | ≥ 90% | ≥ 90% |
| O=C(Nc1ccc(F)cn1)C1=C(O)CC(c2cnc(Cl)c(-c3cnccc3F)c2)NC1=O (centres unmarked) [2-136] | ≥ 50% | ≥ 90% | ≥ 90% | ≥ 90% |
| O=C(Nc1cc(Br)cc(F)n1)C1=C(O)CC(c2cnc(Cl)c(-c3cnccc3F)c2)NC1=O (centres unmarked) [2-138] | ≥ 50% | ≥ 90% | ≥ 90% | ≥ 90% |
| O=C(Nc1cncc(F)c1Br)C1=C(O)CC(c2cnc(Cl)c(-c3cnccc3F)c2)NC1=O (centres unmarked) [2-139] | ≥ 50% | ≥ 90% | ≥ 90% | ≥ 90% |
| O=C(Nc1cc(Br)c(F)cn1)C1=C(O)CC(c2cnc(Cl)c(-c3cnccc3F)c2)NC1=O (centres unmarked) [2-140] | ≥ 50% | ≥ 90% | ≥ 90% | ≥ 90% |
| O=C(Nc1cccc(F)n1)C1=C(O)CC(c2cnc(Cl)c(-c3cnccc3F)c2)NC1=O (centres unmarked) [2-142] | ≥ 50% | ≥ 90% | ≥ 90% | ≥ 90% |
| O=C(Nc1cc(Br)ccn1)C1=C(O)CC(c2cnc(Cl)c(-c3cnccc3F)c2)NC1=O (centres unmarked) [2-144] | ≥ 50% | ≥ 90% | ≥ 90% | ≥ 90% |
| O=C(Nc1cc(C(F)(F)F)ccn1)C1=C(O)CC(c2cnc(Cl)c(-c3cnccc3F)c2)NC1=O (centres unmarked) [2-145] | ≥ 50% | ≥ 90% | ≥ 90% | ≥ 90% |
| O=C(Nc1cnccn1)C1=C(O)CC(c2cnc(Cl)c(-c3cncc(Cl)c3)c2)NC1=O (centres unmarked) [2-147] | ≥ 50% | ≥ 90% | ≥ 90% | ≥ 90% |

| Compound | mortality at 10 µg/cm2 [1] | mortality at 500 µg/mL [2] | mortality at 500 µg/mL [3] | mortality at 500 µg/mL [4] |
| --- | --- | --- | --- | --- |
| O=C(Nc1cnccn1)C1=C(O)CC(c2cnc(Cl)c(-c3ccc(F)cc3)c2)NC1=O (centres unmarked) [2-227] | ≥ 50% | ≥ 90% | ≥ 90% | ≥ 90% |
| O=C(Nc1nccs1)C1=C(O)CC(c2cnc(Cl)c(-c3ccc(F)cc3)c2)NC1=O (centres unmarked) [2-235] | ≥ 50% | ≥ 90% | ≥ 90% | ≥ 90% |
| Cc1cccc(-c2cc(C3CC(O)=C(C(=O)Nc4ccccn4)C(=O)N3)cnc2Cl)c1 (centres unmarked) [2-260] | ≥ 50% | ≥ 90% | ≥ 90% | ≥ 90% |
| Cc1cccc(-c2cc(C3CC(O)=C(C(=O)Nc4cnccn4)C(=O)N3)cnc2Cl)c1 (centres unmarked) [2-261] | ≥ 50% | ≥ 90% | ≥ 90% | ≥ 90% |
| Cc1cccc(-c2cc(C3CC(O)=C(C(=O)Nc4ccc(F)cc4)C(=O)N3)cnc2Cl)c1 (centres unmarked) [2-263] | ≥ 50% | ≥ 90% | ≥ 90% | ≥ 90% |
| Cc1cccc(-c2cc(C3CC(O)=C(C(=O)Nc4ccc(C#N)cc4)C(=O)N3)cnc2Cl)c1 (centres unmarked) [2-269] | ≥ 50% | ≥ 90% | ≥ 90% | ≥ 90% |
| O=C(Nc1ccc(F)cc1)C1=C(O)CC(c2nc(-c3ccccc3)no2)NC1=O (centres unmarked) [3-001] | ≥ 50% | ≥ 90% | ≥ 90% | ≥ 90% |
| O=C(Nc1ccc(F)cc1)C1=C(O)CC(c2nc(-c3cccc(C(F)(F)F)c3)no2)NC1=O (centres unmarked) [3-005] | ≥ 50% | ≥ 90% | ≥ 90% | ≥ 90% |
| O=C(Nc1ccc(F)cc1)C1=C(O)CC(c2nc(-c3ccccn3)no2)NC1=O (centres unmarked) [3-006] | ≥ 50% | ≥ 90% | ≥ 90% | ≥ 90% |
| O=C(Nc1ccc(F)cc1)C1=C(O)CC(c2nc(-c3cccnc3)no2)NC1=O (centres unmarked) [3-007] | ≥ 50% | ≥ 90% | ≥ 90% | ≥ 90% |
| O=C(Nc1ccc(F)cc1)C1=C(O)CC(c2nc(-c3ccc(F)cc3)no2)NC1=O (centres unmarked) [3-010] | ≥ 50% | ≥ 90% | ≥ 90% | ≥ 90% |
| O=C(Nc1ccc(F)cc1)C1=C(O)CC(c2nc(-c3ccccc3F)no2)NC1=O (centres unmarked) [3-012] | ≥ 50% | ≥ 90% | ≥ 90% | ≥ 90% |
| O=C(Nc1ccc(F)cc1)C1=C(O)CC(c2nc(-c3cncc(F)c3)no2)NC1=O (centres unmarked) [3-021] | ≥ 50% | ≥ 90% | ≥ 90% | ≥ 90% |
| O=C(Nc1ccc(F)cc1)C1=C(O)CC(c2nc(-c3cc(F)ccc3F)no2)NC1=O (centres unmarked) [3-026] | ≥ 50% | ≥ 90% | ≥ 90% | ≥ 90% |
| O=C(Nc1ccc(F)cc1)C1=C(O)CC(c2nc(-c3cccc(Cl)c3)no2)NC1=O (centres unmarked) [3-029] | ≥ 50% | ≥ 90% | ≥ 90% | ≥ 90% |
| Cc1cccc(-c2noc(C3CC(O)=C(C(=O)Nc4ccc(F)cc4)C(=O)N3)n2)c1 (centres unmarked) [3-030] | ≥ 50% | ≥ 90% | ≥ 90% | ≥ 90% |
